Our source for the IC50 and Activity values is ChEMBL document CHEMBL1152179, “Semi-synthesis and biological activity of gamma-lactones analogs of camptothecin” (Bioorg Med Chem Lett, 2008).

Assay type in all cases: functional, cell-based
In assay [1] the test system is HT-29. Description: Cytotoxicity against human HT-29 cells by SRB method. In general terms: Sulforhodamine B stains cellular protein and so reports cell mass.
Assay [2] has as its system A549. Description: Cytotoxicity against human A549 cells by SRB method.
Assay [3] concerns HT-29. Description: Cytotoxicity against human HT-29 cells upto 100 uM by SRB method.
The test system of assay [4] is A549. The experiment in a line: Cytotoxicity against human A549 cells upto 100 uM by SRB method.

Calls of active or inactive are those of the source. No cut-off for these calls is given here.

As a reminder, the IC50 is the concentration needed to halve the response being measured. A low value points to inhibition by little substance.

As for `CC[C@@]1(C(=O)NCCN2CCCC2)OC(=O)c2c1cc1n(c2=O)Cc2cc3ccccc3nc2-1`, the IC50 in assay [1] stood at 31.6 µM; in assay [2], 94.3 µM.
The matching figures for `CC[C@@]1(O)C(=O)OCc2c1cc1n(c2=O)Cc2cc3c(CN(C)C)c(O)ccc3nc2-1` [TOPOTECAN]: 0.375 µM and 0.48 µM.
Regarding `CC[C@@]1(C(N)=O)OC(=O)c2c1cc1n(c2=O)Cc2cc3ccccc3nc2-1`, the result in assay [3] and in assay [4] was inactive.
In the case of `CC[C@@]1(C(=O)NCCO)OC(=O)c2c1cc1n(c2=O)Cc2cc3ccccc3nc2-1`, the outcome in assay [3] and in assay [4] was inactive.
On to `CCCCNC(=O)[C@]1(CC)OC(=O)c2c1cc1n(c2=O)Cc2c-1nc1ccccc1c2CC`, for which the outcome in assay [3] and in assay [4] was inactive.
Turning to `CC[C@@]1(C(=O)NCCN2CCOCC2)OC(=O)c2c1cc1n(c2=O)Cc2c-1nc1ccc(OC)cc1c2C1CCCC1`, the figures for the IC50 in assay [1] and in assay [2] were 62.9 µM and 96.5 µM, respectively.
Take `CC[C@@]1(C(=O)NCCN2CCOCC2)OC(=O)c2c1cc1n(c2=O)Cc2c-1nc1ccccc1c2C1CCCCC1`: the result in assay [3] and in assay [4] was inactive.
In the case of `CCN(CC)CCNC(=O)[C@]1(CC)OC(=O)c2c1cc1n(c2=O)Cc2cc3ccccc3nc2-1`, the values for the concentration for half-maximal inhibition (IC50) in assay [1] and in assay [2] were 31.6 µM and 65.3 µM, respectively.
Taken in the same sequence, the figures for `CCc1c2c(nc3ccc(O)cc13)-c1cc3c(c(=O)n1C2)COC(=O)[C@]3(O)CC` [7-ETHYL-10-HYDROXYCAMPTOTHECIN] were 0.12 µM and 0.08 µM.
Taken in the same sequence, the figures for `CCCCNC(=O)[C@]1(CC)OC(=O)c2c1cc1n(c2=O)Cc2cc3ccccc3nc2-1` were 68.3 µM and 70.1 µM.
The matching figures for `CC[C@@]1(C(=O)NCCN2CCOCC2)OC(=O)c2c1cc1n(c2=O)Cc2cc3ccccc3nc2-1`: 39.9 µM and 25.6 µM.
As to `CC[C@@]1(C(=O)NCCN2CCOCC2)OC(=O)c2c1cc1n(c2=O)Cc2c-1nc1ccccc1c2C1CCCC1`, the result in assay [3] and in assay [4] was inactive.
Take `CC[C@@]1(C(=O)NCCCO)OC(=O)c2c1cc1n(c2=O)Cc2cc3ccccc3nc2-1`: the outcome in assay [3] and in assay [4] was inactive.
`CC[C@@]1(C(=O)NCCN2CCN(C)CC2)OC(=O)c2c1cc1n(c2=O)Cc2cc3ccccc3nc2-1`: the values for the IC50 in assay [1] and in assay [2] were 7.25 µM and 53.1 µM, respectively.
As to `CCc1c2c(nc3ccc(OC)cc13)-c1cc3c(c(=O)n1C2)C(=O)O[C@@]3(CC)C(=O)NCCN1CCOCC1`, the result in assay [3] and in assay [4] was inactive.
In the case of `CC[C@@]1(C(=O)NCCN2CCCCC2)OC(=O)c2c1cc1n(c2=O)Cc2cc3ccccc3nc2-1`, the IC50 in assay [1] amounted to 31.6 µM; in assay [2], 74.9 µM.
As to `CC[C@@]1(C(=O)NCCN2CCOCC2)OC(=O)c2c1cc1n(c2=O)Cc2c-1nc1ccccc1c2C(=O)C1CC1`, the outcome in assay [3] and in assay [4] was inactive.
For the compound `CC[C@@]1(C(=O)NCCN2CCSCC2)OC(=O)c2c1cc1n(c2=O)Cc2cc3ccccc3nc2-1`, the result in assay [3] and in assay [4] was inactive.
